Measurements taken from patent publication US10844044B2 (Vanderbilt University, priority 2018, dated 2020).
Where two headings read alike, the source gives them in different places.

Key:
WDR5 = WDR5 (Homo sapiens (Human), UniProt P61964); experiment: TR-FRET binding assay (displacement of 10mer-Thr-FAM probe from WDR5)
[1] = system: MV4:11 human cancer cell lines; experiment: Anti-proliferative activity, CellTiter-Glo viability assay, 7 day protocol; type: cell-based; details: Homo sapiens, MV4-11, 168 h, MV4:11 cells, 7 day incubation, read-out: GI50 on cellular proliferation of MV4:11 human cancer cell lines
Experimental: Viability assays are performed by dispensing […] into each well of an opaque 384-well plate and adding compounds at the indicated concentrations in a final volume of 32 μL and a final concentration of DMSO of 0.1% for all samples. After a set incubation period, 7 day protocol, the viability of cells in each well is assessed using the CellTiter-Glo assay (Promega), read on a GloMax 96 Microplane Luminometer (Promega). Serial dilutions of each cell type are included in all assays to generate standard curves and determine assay measurements are taken within the dynamic range of the instrument. GI50 values are calculated based on three biological replicates, each with three technical replicates. Data are expressed as mean plus/minus S.E.M.

[2] = read-out: Ki for Inhibition of WDR5 by TR-FRET assay, TR-FRET, 10mer-Thr-FAM probe, WDR5-His tag 2 nM, pH 7.0
[3] = read-out: Ki for Inhibition of WDR5 by TR-FRET assay

| Compound | Ki (WDR5; [2]) [nM] | GI50 [1] [nM] | Ki (WDR5) [nM] | Ki (WDR5; [3]) [nM] |
| --- | --- | --- | --- | --- |
| COc1cc(OC)cc(C(NC(=O)c2cc(Cn3ccoc3=N)cc(-c3ccc(F)cc3OC(F)F)c2)C2CC2)c1 (centres unmarked) [Example 236, N-(Cyclopropyl(3,5-dimethoxyphenyl)methyl)-2′-(difluoromethoxy)-4′-fluoro-5-((2-iminooxazol-3(2H)-yl)methyl)-[1,1′-biphenyl]-3-carboxamide] | 0.16 | 450 |  |  |
| Cc1cc([C@@H](NC(=O)c2cc(Cn3ccn(C)c3=N)cc(-c3cn(C)nc3C(F)(F)F)c2)C2CC2)ccc1F [Example 125, (S)—N-(Cyclopropyl(4-fluoro-3-methylphenyl)methyl)-3-((2-imino-3-methyl-2,3-dihydro-1H-imidazol-1-yl)methyl)-5-(1-methyl-3-(trifluoromethyl)-1H-pyrazol-4-yl)benzamide] |  | 180 | < 0.1 |  |
| Cc1cc([C@@H](NC(=O)c2cc(Cn3ccn(C)c3=N)cc(-c3cccnc3OC(F)F)c2)C2CC2)ccc1F [Example 127, (S)—N-(Cyclopropyl(4-fluoro-3-methylphenyl)methyl)-3-(2-(difluoromethoxy)pyridin-3-yl)-5-((2-imino-3-methyl-2,3-dihydro-1H-imidazol-1-yl)methyl)benzamide] | 0.21 | 730 |  |  |
| Cc1cc([C@@H](NC(=O)c2cc(Cn3ccn(C)c3=N)cc(-c3cccnc3C(F)(F)F)c2F)C2CC2)ccc1F [Example 131, (S)—N-(Cyclopropyl(4-fluoro-3-methylphenyl)methyl)-2-fluoro-5-((2-imino-3-methyl-2,3-dihydro-1H-imidazol-1-yl)methyl)-3-(2-(trifluoromethyl)pyridin-3-yl)benzamide] | < 0.1 | 140 |  |  |
| Cc1cc([C@@H](NC(=O)c2cc(CN3CCOC3=N)cc(-c3ccc(F)cc3C(F)F)c2)C2CC2)ccc1F [Example 272, (S)—N-(Cyclopropyl(4-fluoro-3-methylphenyl)methyl)-2′-(difluoromethyl)-4′-fluoro-5-((2-iminooxazolidin-3-yl)methyl)-[1,1′-biphenyl]-3-carboxamide] | < 0.1 | 100 |  |  |
| Cc1cc([C@@H](NC(=O)c2cc(CN3CCCC3=N)cc(-c3ccc(F)cc3C#N)c2)C2CC2)ccc1F [Example 333, (S)-2′-Cyano-N-(cyclopropyl(4-fluoro-3-methylphenyl)methyl)-4′-fluoro-5-((2-iminopyrrolidin-1-yl)methyl)-[1,1′-biphenyl]-3-carboxamide] | 0.39 | 520 |  |  |
| Cc1cc(CNC(=O)c2cc(Cn3ccn(C)c3=N)cc(-c3cccc4[nH]nc(C)c34)c2)ccc1Cl [Example 46, N-(4-chloro-3-methylbenzyl)-3-((2-imino-3-methyl-2,3-dihydro-1H-imidazol-1-yl)methyl)-5-(3-methyl-1H-indazol-4-yl)benzamide] | 1.3 | 5900 |  |  |
| Cc1ccnc(C(NC(=O)c2cc(Cn3ccn(C)c3=N)cc(-c3ccc(F)nc3C)c2)C2CC2)c1 (centres unmarked) [Example 3, N-(Cyclopropyl(4-methylpyridin-2-yl)methyl)-3-(6-fluoro-2-methylpyridin-3-yl)-5-((2-imino-3-methyl-2,3-dihydro-1H-imidazol-1-yl)methyl)benzamide] | < 0.1 | 550 |  |  |
| Cc1cc(CNC(=O)c2cc(Cn3ccn(C)c3=N)cc(-c3c(C)cc(F)cc3F)c2)ccc1Cl [Example 53, N-(4-Chloro-3-methylbenzyl)-2′,4′-difluoro-5-((2-imino-3-methyl-2,3-dihydro-1H-imidazol-1-yl)methyl)-6′-methyl-[1,1′-biphenyl]-3-carboxamide] | 0.56 | 580 |  |  |
| Cc1cc([C@@H](NC(=O)c2cc(Cn3ccoc3=N)cc(-c3cn(C(C)C)nc3C(F)(F)F)c2)C2CC2)ccc1F [Example 291, (S)—N-(Cyclopropyl(4-fluoro-3-methylphenyl)methyl)-3-((2-iminooxazol-3(2H)-yl)methyl)-5-(1-isopropyl-3-(trifluromethyl)-1H-pyrazol-4-yl)benzamide] | < 0.1 | < 100 |  |  |
| Cc1cc([C@@H](NC(=O)c2cc(Cn3ccsc3=N)cc(-c3cn(C)nc3C(F)(F)F)c2)C2CC2)ccc1F [Example 321, (S)—N-(Cyclopropyl(4-fluoro-3-methylphenyl)methyl)-3-((2-iminothiazol-3(2H)-yl)methyl)-5-(1-methyl-3-(trifluoromethyl)-1H-pyrazol-4-yl)benzamide] | < 0.1 | < 100 |  |  |
| COc1cc(CNC(=O)c2cc(Cn3ccn(C)c3=N)cc(-c3c(C)ccc4[nH]ncc34)c2)cc(OC)c1 [Example 35, N-(3,5-Dimethoxybenzyl)-3-((2-imino-3-methyl-2,3-dihydro-1H-imidazol-1-yl)methyl)-5-(5-methyl-1H-indazol-4-yl)benzamide] | 1.3 | 9000 |  |  |
| Cc1cc(CNC(=O)c2cc(Cn3ccn(C)c3=N)cc(OC(F)(F)F)c2)ccc1Cl [Example 147, N-(4-Chloro-3-methylbenzyl)-3-((2-imino-3-methyl-2,3-dihydro-1H-imidazol-1-yl)methyl)-5-(trifluoromethoxy)benzamide] | 0.37 | 840 |  |  |
| CCn1cc(-c2cc(CN3CCN(C)C3=N)cc(C(=O)N[C@H](c3ccc(F)c(Cl)c3)C3CC3)c2)c(C(F)(F)F)n1 [Example 214, (S)—N-((3-Chloro-4-fluorophenyl)(cyclopropyl)methyl)-3-(1-ethyl-3-(trifluoromethyl)-1H pyrazol-4-yl)-5-((2-imino-3-methylimidazolidin-1-yl)methyl)benzamide] |  | < 100 | < 0.1 |  |
| CCn1cc(-c2cc(Cn3ccn(C)c3=N)cc(C(=O)N[C@H](c3ccc(F)c(F)c3)C3CC3)c2)c(C(F)(F)F)n1 [Example 191] | < 0.1 | 80 |  |  |
| Cn1ccn(Cc2cc(C(=O)N[C@H](c3ccc(Cl)c(Cl)c3)C3CC3)cc(-c3ncc(F)cc3C(F)(F)F)c2)c1=N [Example 187] | < 0.1 | 440 |  |  |
| Cn1cc(-c2cc(Cn3ccoc3=N)cc(C(=O)N[C@H](c3ccc(Cl)c(Cl)c3)C3CC3)c2)c(C(F)(F)F)n1 [Example 268, (S)—N-(Cyclopropyl(3,4-dichlorophenyl)methyl)-3-((2-iminooxazol-3(2H)-yl)methyl)-5-(1-methyl-3-(trifluoromethyl)-1 t-pyrazol-4-yl)benzamide] |  | < 100 |  | < 0.1 |
| Cn1cc(-c2cc(Cn3ccn(C)c3=N)cc(C(=O)N[C@H](c3ccc(Cl)c(Cl)c3)C3CC3)c2)c(C(F)(F)F)n1 [Example 211] | < 0.1 | < 100 |  |  |
| Cc1cc([C@@H](NC(=O)c2cc(Cn3ccoc3=N)cc(-c3cn(C)nc3C(F)(F)F)c2)C2CC2)ncc1F [Example 299, (S)—N-(Cyclopropyl(5-fluoro-4-methylpyridin-2-yl)methyl)-3-((2-iminooxazol-3(2H)-yl)methyl)-5-(1-methyl-3-(trifluoromethyl)-1H-pyrazol-4-yl)benzamide] | < 0.1 | < 100 |  |  |
| Cc1cc([C@@H](NC(=O)c2cc(Cn3ccn(C)c3=N)cc(C3(C(F)(F)F)CC3)c2)C2CC2)ccc1F [Example 217, (S)—N-(cyclopropyl(4-fluoro-3-methylphenyl)methyl)-3-((2imino-3-methyl-2,3-dihydro-1H-imidazol-1-yl)methyl)-5-(1-(trifluoromethyl)cyclopropyl)benzamide] | < 0.1 | < 100 |  |  |
| CCn1cc(-c2cc(CN3CCN(C)C3=N)cc(C(=O)N[C@H](c3ccc(F)c(C)c3)C3CC3)c2)c(C(F)(F)F)n1 [Example 212, (S)—N-(Cyclopropyl(4-fluoro-3-methylphenyl)methyl)-3-(1-ethyl-3-(trifluoromethyl)-1H-pyrazol-4-yl)-5-((2-imino-3-methylimidazolidin-1-yl)methyl)benzamide] |  | < 100 | < 0.1 |  |
| COc1cc([C@@H](NC(=O)c2cc(CN3CCCC3=N)cc(-c3cn(C)nc3C(F)(F)F)c2)C2CC2)ccc1F [Example 339, (S)—N-(Cyclopropyl(4-fluoro-3-methoxyphenyl)methyl)-3-((2-iminopyrrolidin-1-yl)methyl)-5-(1-methyl-3-(trifluoromethyl)-1H-pyrazol-4-yl)benzamide] |  | 100 |  | < 0.1 |
| Cc1cc([C@@H](NC(=O)c2cc(CN3CCCC3=N)cc(-c3cn(C(C)C)nc3C(F)(F)F)c2)C2CC2)ccc1F [Example 336, (S)—N-(Cyclopropyl(4-fluoro-3-methylphenyl)methyl)-3-((2-iminopyrrolidin-1 yl)methyl)-5-(1-isopropyl-3-(trifluoromethyl)-1H-pyrazol-4-yl)benzamide] | < 0.1 | < 100 |  |  |
| CCn1cc(-c2cc(Cn3ccn(C4CC4)c3=N)cc(C(=O)NCc3ccc(=O)n(C)c3)c2)c(C(F)(F)F)n1 [Example 199, 3-((3-Cyclopropyl-2-imino-2,3-dihydro-1H-imidazol-1-yl)methyl)-5-(1-ethyl-3-(trifluoromethyl)-1H-pyrazol-4-yl)-N-((1-methyl-6-oxo-1,6-dihydropyridin-3-yl)methyl)benzamide] | 0.3 | 940 |  |  |
| Cc1ccnc([C@@H](NC(=O)c2cc(Cn3ccn(C)c3=N)cc(-c3ccc(F)cc3C(F)(F)F)c2F)C2CC2)c1 [Example 120, (S)—N-(Cyclopropyl(4-methylpyridin-2-yl)methyl)-2,4′-difluoro-5-((2-imino-3-methyl-2,3-dihydro-1H-imidazol-1-yl)methyl)-2′-(trifluoromethyl)-[1,1′-biphenyl]-3-carboxamide] | < 0.1 | 220 |  |  |
